Laboratory results taken from patent publication EP0025288A1, “Derivatives of monic acid, processes for their preparation, compositions containing them and their preparation” (priority 1979, dated 1981).
In brackets after ≈: the same amount, converted by molar mass.

What was measured:
E coli NCTC 10418 = experiment: MIC, veterinary bacteria; type: cell-based; settings: veterinary bacteria (Table 2), read-out: MIC
E coli E1 = experiment: MIC, veterinary bacteria; type: cell-based; settings: veterinary bacteria (Table 2), read-out: MIC
S dublin S7 = experiment: MIC, veterinary bacteria; type: cell-based; settings: veterinary bacteria (Table 2), read-out: MIC
S typhimurium S18 = experiment: MIC, veterinary bacteria; type: cell-based; settings: veterinary bacteria (Table 2), read-out: MIC
Bord bronchiseptica BO8 = experiment: MIC, veterinary bacteria; type: cell-based; settings: veterinary bacteria (Table 2), read-out: MIC
Bord bronchisptica BO9 = experiment: MIC, veterinary bacteria; type: cell-based; settings: veterinary bacteria (Table 2), read-out: MIC
Past multocida PA1 = experiment: MIC, veterinary bacteria; type: cell-based; settings: veterinary bacteria (Table 2), read-out: MIC
Past multocida PA2 = experiment: MIC, veterinary bacteria; type: cell-based; settings: veterinary bacteria (Table 2), read-out: MIC
Past Haemolytica PA5 = experiment: MIC, veterinary bacteria; type: cell-based; settings: veterinary bacteria (Table 2), read-out: MIC
[1] = test system: Erysipelothrix rhusiopathiae NCTC 8163; experiment: MIC, veterinary bacteria; type: cell-based; settings: NCTC8163, veterinary bacteria (Table 2), read-out: MIC
[2] = test system: Corynebacterium pyogenes CY1; experiment: MIC, veterinary bacteria; type: cell-based; settings: veterinary bacteria (Table 2), read-out: MIC
[3] = test system: Staph aureus B4 (pen resis); experiment: MIC, veterinary bacteria; type: cell-based; settings: Staphylococcus aureus, veterinary bacteria (Table 2), read-out: MIC
[4] = test system: Staph aureus 152 (pen sens); experiment: MIC, veterinary bacteria; type: cell-based; settings: Staphylococcus aureus, veterinary bacteria (Table 2), read-out: MIC
Staph aureus Oxford = experiment: MIC, veterinary bacteria; type: cell-based; settings: Staphylococcus aureus, veterinary bacteria (Table 2), read-out: MIC
[5] = test system: Strep suis (group D) SPS11; experiment: MIC, veterinary bacteria; type: cell-based; settings: veterinary bacteria (Table 2), read-out: MIC
Strep uberis SPU1 = experiment: MIC, veterinary bacteria; type: cell-based; settings: veterinary bacteria (Table 2), read-out: MIC
Strep dysgalaciae SPD1 = experiment: MIC, veterinary bacteria; type: cell-based; settings: veterinary bacteria (Table 2), read-out: MIC
Strep agalactiae SPA1 = experiment: MIC, veterinary bacteria; type: cell-based; settings: veterinary bacteria (Table 2), read-out: MIC
M suipneumoniae Str 11 = experiment: MIC, anti-mycoplasmal, Friis' broth microtiter method; type: cell-based; settings: read-out: in vitro MIC, BROTH
[6] = test system: M suipneumoniae J2206/183b; experiment: as above; type: cell-based; settings: read-out: in vitro MIC, BROTH
M dispar H225 = experiment: as above; type: cell-based; settings: read-out: in vitro MIC, BROTH
M dispar NCTC 10125 = experiment: as above; type: cell-based; settings: read-out: in vitro MIC, BROTH
M pneumoniae 427a [7] = experiment: as above; type: cell-based; settings: read-out: in vitro MIC, BROTH
M pneumoniae ATCC 15492 [8] = experiment: as above; type: cell-based; settings: read-out: in vitro MIC, BROTH
M fermentans MWKL4 [9] = experiment: as above; type: cell-based; settings: read-out: in vitro MIC, BROTH
M pulmonis JB [10] = experiment: as above; type: cell-based; settings: read-out: in vitro MIC, BROTH
M pneumoniae 427a [11] = experiment: MIC, anti-mycoplasmal, serial dilution in Friis' agar; type: cell-based; settings: read-out: in vitro MIC, AGAR
M pneumoniae ATCC 15492 [12] = experiment: as above; type: cell-based; settings: read-out: in vitro MIC, AGAR
M fermentans MWKL4 [13] = experiment: as above; type: cell-based; settings: read-out: in vitro MIC, AGAR
M pulmonis JB [14] = experiment: as above; type: cell-based; settings: read-out: in vitro MIC, AGAR
M hyorhinis ATCC 23234 = experiment: as above; type: cell-based; settings: read-out: in vitro MIC, AGAR
M hyosynoviae ATCC 25591 = experiment: as above; type: cell-based; settings: read-out: in vitro MIC, AGAR
M arthritidis ATCC 14124 = experiment: as above; type: cell-based; settings: read-out: in vitro MIC, AGAR
M gallisepticum S6 = experiment: as above; type: cell-based; settings: read-out: in vitro MIC, AGAR
M synoviae ATCC 25204 = experiment: as above; type: cell-based; settings: read-out: in vitro MIC, AGAR
M alkalescens NCTC 10135 = experiment: as above; type: cell-based; settings: read-out: in vitro MIC, AGAR
[15] = test system: M bovigenitalium ATCC 14173; experiment: as above; type: cell-based; settings: read-out: in vitro MIC, AGAR
[16] = Serum binding by ultrafiltration; type: in vitro ADME, pig; settings: pig, serum, compounds at 8 mcg/ml, microbiological assay (B. subtilis ATCC 6633), read-out: % bound to pig serum (converted)
Protocol: Serum binding was assessed by ultrafiltration of procine serum containing compounds at 8 mcg/ml, and through an Amicon CF50A ultrafiltration cone. Separation of ultrafiltrate was achieved by centrifugation.

Work on `CC(=O)COC(=O)C=C(C)CC1OCC(CC2OC2C(C)C(C)O)C(O)C1O` (centres unmarked) [Example 1, Acetvlmethvl Monate A] yielded an MIC (E coli NCTC 10418) of over 80 µg/mL, an MIC (E coli E1) of over 80 µg/mL and an MIC (S dublin S7) of over 80 µg/mL. The MIC (S typhimurium S18) was over 80 µg/mL, the MIC (Bord bronchiseptica BO8) was over 80 µg/mL and the MIC (Bord bronchisptica BO9) was 40 µg/mL (≈ 99.9 µM). The MIC (Past multocida PA1) was 0.625 µg/mL (≈ 1.56 µM), the MIC (Past multocida PA2) was 0.312 µg/mL (≈ 0.779 µM) and the MIC (Past Haemolytica PA5) was 5 µg/mL (≈ 12.5 µM). It also gave an MIC [1] of over 80 µg/mL, an MIC [2] of over 80 µg/mL and an MIC [3] of 2.5 µg/mL (≈ 6.24 µM). For the same molecule, the MIC [4] was 2.5 µg/mL (≈ 6.24 µM), the MIC (Staph aureus Oxford) was 2.5 µg/mL (≈ 6.24 µM) and the MIC [5] was 40 µg/mL (≈ 99.9 µM). For the same molecule, the MIC (Strep uberis SPU1) was 2.5 µg/mL (≈ 6.24 µM), the MIC (Strep dysgalaciae SPD1) was 5 µg/mL (≈ 12.5 µM) and the MIC (Strep agalactiae SPA1) was 5 µg/mL (≈ 12.5 µM). For the same molecule, the MIC (M suipneumoniae Str 11) was 0.625 µg/mL (≈ 1.56 µM), the MIC [6] was 1.25 µg/mL (≈ 3.12 µM) and the MIC (M dispar H225) was 0.156 µg/mL (≈ 0.39 µM). The MIC (M dispar NCTC 10125) was 0.156 µg/mL (≈ 0.39 µM), the MIC (M pneumoniae 427a [7]) was over 10 µg/mL and the MIC (M pneumoniae ATCC 15492 [8]) was over 10 µg/mL. The MIC (M fermentans MWKL4 [9]) was 0.078 µg/mL (≈ 0.195 µM), the MIC (M pulmonis JB [10]) was 0.156 µg/mL (≈ 0.39 µM) and the MIC (M pneumoniae 427a [11]) was 10 µg/mL (≈ 25 µM). For the same molecule, the MIC (M pneumoniae ATCC 15492 [12]) was over 10 µg/mL, the MIC (M fermentans MWKL4 [13]) was 0.312 µg/mL (≈ 0.779 µM) and the MIC (M pulmonis JB [14]) was 0.156 µg/mL (≈ 0.39 µM). For the same molecule, the MIC (M hyorhinis ATCC 23234) was 2.5 µg/mL (≈ 6.24 µM), the MIC (M hyosynoviae ATCC 25591) was 1.25 µg/mL (≈ 3.12 µM) and the MIC (M arthritidis ATCC 14124) was over 10 µg/mL. The MIC (M gallisepticum S6) was over 10 µg/mL, the MIC (M synoviae ATCC 25204) was under 0.02 µg/mL and the MIC (M alkalescens NCTC 10135) was 0.039 µg/mL (≈ 0.0974 µM). The MIC [15] was 0.078 µg/mL (≈ 0.195 µM) and the fraction unbound [16] was 0.772.
